From US9067983B2, “Anti-inflammatory antibodies and uses therefor” (DecImmune Therapeutics, Inc., priority 2009, dated 2015)
No end group written: not given here.

Test system: RAG-1-/- mice
Experiment: human IgM-mediated myocardial injury in RAG-1-/- mice (1 h LAD occlusion, 24 h reperfusion)
Assay type: in vivo, mouse
Conditions: 400 μg hIgM i.v. with 200 μg N2 peptide or 150 μg F(ab')2, 15 min prior to occlusion; FIG. 4
Experimental: Prior to occlusion (15 min), 400 μg of pooled individual hIgM from 10 donors was injected i.v. into the mice with either saline or 200 μg of N2 peptide. Myocardial sections were stained with Evans blue and TTC. Myocardial infarct size is expressed as a percentage infarct of the area at risk (AAR) of the left ventricle. (B and C) RAG-1−/− mice were treated as in (A) and analyzed for hIgM deposition (B) or serum troponin-I levels (C). (D) RAG-1−/− mice were subjected to 1 h LAD occlusion and 24 h reperfusion. Prior to occlusion (15 min), 400 μg hIgM was injected i.v. into the mice with either saline or 150 μg of anti-N2 F(ab′)2 antibody (21G6) and myocardial sections were analyzed as in (A). (E) RAG-1−/− mice were treated as in (D) and analyzed for hIgM deposition. In all panels, statistical significance was evaluated by Student's t test.

## Ac-LMKNMDPLNDNV (listed as Mus sp.) [N2 peptide, self-peptide, amino acids 592-603 of Mouse NMHC-IIB]
  human IgM-mediated injury (infarct size, hIgM deposition, serum troponin-I): block human IgM-mediated injury
